Results taken from patent US20230092163A1, “COMPOUNDS AND COMPOSITIONS FOR TREATING CONDITIONS ASSOCIATED WITH STING ACTIVITY” (IFM Due, Inc., priority 2019, published 2023).

These compounds were tested against STING (Homo sapiens, UniProt Q86WV6, G230A/H232R/R293Q/R71H) (assay: STING reporter assay: THP1-Dual KO-IFNAR2 cells stimulated with 2′3′cGAMP, luciferase reporter activity). Conditions: 15 μM 2′3′cGAMP, 24h, class symbols.
Format: cell-based
In short: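 THP1-Dual KO-IFNAR2 cells (2×10E6 cells/mL) treated with compounds at 0.0017-100 μM, then stimulated with 2′3′cGAMP (15 μM final) delivered by Lipofectamine 2000; 24 h at 37° C. Supernatant luciferase read by QUANTI-Luc Plus luminescence; EC50 from dose-response.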

STING, sequence (Q86WV6 whole entry R71H/G230A/H232R/R293Q): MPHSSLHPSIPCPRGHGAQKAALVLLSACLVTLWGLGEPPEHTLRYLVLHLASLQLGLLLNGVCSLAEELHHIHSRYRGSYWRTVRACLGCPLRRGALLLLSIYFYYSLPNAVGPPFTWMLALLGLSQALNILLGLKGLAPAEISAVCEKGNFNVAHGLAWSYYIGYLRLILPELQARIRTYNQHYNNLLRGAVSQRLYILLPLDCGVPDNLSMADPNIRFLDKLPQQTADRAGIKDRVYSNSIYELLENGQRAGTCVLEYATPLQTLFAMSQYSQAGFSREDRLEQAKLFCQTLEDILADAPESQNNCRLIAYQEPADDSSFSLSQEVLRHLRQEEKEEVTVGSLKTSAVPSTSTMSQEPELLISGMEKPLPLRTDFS

EC50 [µM]	Compound
1 to 5	FC(F)(F)c1ccc(Nc2ccc3cc[nH]c3c2)nc1Cl [Compound 591]
5 to 100	CCOc1ccc(Nc2ccc3cc[nH]c3c2)nc1C [Compound 594, N-(5-ethoxy-6-methylpyridin-2-yl)-1H-indol-6-amine]
5 to 100	Cc1nc(Nc2ccc3cc[nH]c3c2)ccc1Cl [Compound 595, N-(5-chloro-6-methylpyridin-2-yl)-1H-indol-6-amine]
5 to 100	FC(F)(F)c1cccc(Nc2ccc3cc[nH]c3c2)n1 [Compound 609]

The next lines start with the compound.

Compound	EC50 [µM]
Clc1ccc2ccc(Nc3ccc4cc[nH]c4c3)nc2c1 [Compound 589, 7-chloro-N-(1H-indol-6-yl)quinolin-2-amine]	0.2 to 1
Cc1ccc2ccc(Nc3ccc4cc[nH]c4c3)nc2c1 [Compound 592]	1 to 5
Fc1cnc(Nc2ccc3cc[nH]c3c2)cc1Nc1ccc2cc[nH]c2c1 [Compound 593, 5-fluoro-N2,N4-bis(1H-indol-6-yl)pyridine-2,4-diamine]	1 to 5
O=C(Nc1ccc(C(F)(F)F)cc1)Nc1cc(C(=O)OC2CCCC2)c2cc[nH]c2c1 [Compound 602, cyclopentyl 6-(3-(4-(trifluoromethyl)phenyl)ureido)-1H-indole-4-carboxylate]	1 to 5
FC(F)(F)c1ccc2ccc(Nc3cc(Cl)c4cc[nH]c4c3)nc2c1 [Compound 604]	0.2 to 1
CN(c1ccc2cc[nH]c2c1)c1ccc2ccc(C(F)(F)F)cc2n1 [Compound 605, N-(1H-indol-6-yl)-N-methyl-7-(trifluoromethyl)quinolin-2-amine]	5 to 100
C1=C(c2ccc3ccc(Nc4ccc5cc[nH]c5c4)nc3c2)CCCC1 [Compound 606, 7-(cyclohex-1-en-1-yl)-N-(1H-indol-6-yl)quinolin-2-amine]	1 to 5
Brc1ccc2ccc(Nc3ccc4cc[nH]c4c3)nc2c1 [Compound 607]	0.2 to 1
Cn1ccc2ccc(Nc3ccc4ccc(C(F)(F)F)cc4n3)cc21 [Compound 608, N-(1-methyl-1H-indol-6-yl)-7-(trifluoromethyl)quinolin-2-amine]	5 to 100
CCCCc1ccc(Nc2c(Nc3ccc4c(c3)CC=N4)c(=O)c2=O)cc1 [Compound 618]	1 to 5
O=c1c(Nc2ccc(C(F)(F)F)cc2)c(Nc2ccc3[nH]ccc3c2)c1=O [Compound 619]	1 to 5
O=c1c(Nc2ccc(C(F)(F)F)cc2)c(Nc2ccc3cc[nH]c3c2)c1=O [Compound 620]	1 to 5

Same assay, conditions: 15 μM 2′3′cGAMP, 24h, numeric bounds

EC50 [µM]	Compound
> 30	Cc1nc(Nc2ccc3cc[nH]c3c2)ccc1C#N [Compound 598, 6-((1H-indol-6-yl)amino)-2-methylnicotinonitrile]
> 30	COc1ccc(Nc2ccc3cc[nH]c3c2)nc1C [Compound 599, N-(5-methoxy-6-methylpyridin-2-yl)-1H-indol-6-amine]
> 30	COc1ccc(Nc2ccc3cc[nH]c3c2)nc1F [Compound 601, N-(6-fluoro-5-methoxypyridin-2-yl)-1H-indol-6-amine]
> 30	COc1nc(Nc2ccc3cc[nH]c3c2)ccc1C#N [Compound 603, 6-[(1H-indol-6-yl)amino]-2-methoxypyridine-3-carbonitrile]

Continued, compound first:

Compound	EC50 [µM]
O=C1CCc2nc(Nc3ccc4cc[nH]c4c3)ccc21 [Compound 596, 2-[(1H-indol-6-yl)amino]-5H,6H,7H-cyclopenta[b]pyridin-5-one]	> 30
COC(=O)c1ccc(Nc2ccc3cc[nH]c3c2)nc1OC [Compound 597]	> 30
c1cc2ccc(Nc3ccc4c(cnn4C4CCCCO4)n3)cc2[nH]1 (centres unmarked) [Compound 600, N-[1-(oxan-2-yl)-1H-pyrazolo[4,3-b]pyridin-5-yl]-1H-indol-6-amine]	> 30
